In paper PMC2119205 (The Journal of Experimental Medicine, 1992):

Key:
[1] = system: antigen presentation by LNC to T cell hybridoma 1C5.1; experiment: Chloroquine treatment of irradiated LNC before T hybridoma activation; format: cell-based; conditions: C3H mice primed with 14 nmol/mouse HEL in CFA, 10^6 LNC/well; chloroquine 1-100 µM, hybridoma 1C5.1 (Fig. 3)
[2] = system: I-Ak molecules; conditions: cited from earlier work
[3] = system: I-Ek molecules; conditions: cited from earlier work
[4] = system: I-Ed molecules; conditions: cited from earlier work
[5] = system: T cell response; conditions: cited from earlier work
[6] = system: T cell hybridoma 1C5.1 (I-Ak/HEL 46-61); format: cell-based, mouse; conditions: read-out: Responsiveness: amount of HEL or peptide inducing 50% of the maximal response; hybridoma 1C5.1, restriction Ak; LK-35.2 cells as APC; mean of three to four experiments
[7] = system: T cell hybridoma 3A9 (I-Ak/HEL 46-61); format: cell-based, mouse; conditions: read-out: Responsiveness: amount of HEL or peptide inducing 50% of the maximal response; hybridoma 3A9, restriction Ak; LK-35.2 cells as APC; mean of three to four experiments
[8] = system: T cell hybridoma 2D4.1 (I-Ak/HEL 112-129); format: cell-based, mouse; conditions: read-out: Responsiveness: amount of HEL or peptide inducing 50% of the maximal response; hybridoma 2D4.1, restriction Ak; LK-35.2 cells as APC; mean of three to four experiments
[9] = system: T cell hybridoma 1H11.3 (I-Ed/HEL 108-116); format: cell-based, mouse; conditions: read-out: Responsiveness: amount of HEL or peptide inducing 50% of the maximal response; hybridoma 1H11.3, restriction Ed; LK-35.2 cells as APC; mean of three to four experiments
[10] = system: T cell hybridoma 2G7.1 (I-Ek/HEL 1-18); format: cell-based, mouse; conditions: read-out: Responsiveness: amount of HEL or peptide inducing 50% of the maximal response; hybridoma 2G7.1, restriction Ek; LK-35.2 cells as APC; mean of three to four experiments
[11] = system: T cell hybridoma 1C5.1 (I-Ak/HEL 46-61); format: in vivo, C3H mice; conditions: LNC from HEL-primed mice (not shown)
[12] = system: T cell hybridoma 3A9 (I-Ak/HEL 46-61); format: in vivo, C3H and DBA/2 mice; conditions: C3H (H-2k) mice, 7 nmol/mouse HEL-CFA, LNC day 8, no antigen added (Fig. 1)
[13] = system: T cell hybridoma 1H11.3 (I-Ed/HEL 108-116); format: in vivo, C3H and DBA/2 mice; conditions: DBA/2 (H-2d) mice, 7 nmol/mouse HEL-CFA, LNC day 8, no antigen added (Fig. 1)

Compound: CCN(CC)CCCC(C)Nc1ccnc2cc(Cl)ccc12 (centres unmarked) [chloroquine]
- Effect on antigen presentation by LNC from HEL-primed mice [1]: failsto interfere

Compound: CNDGRTPGSRNLCN [HEL 64-77]
- Binding to I-Ak [2]: does not bind

Compound: DRGDQSTDYGIFQINSR [ML 46-62]
- Binding to I-Ak molecules [2]: binds strongly
- Binding to I-Ek molecules [3]: failsto bind
- Binding to I-Ed molecules [4]: failsto bind
- Immunogenicity in mice [5]: nonimmunogenic

Compound: hen egg white lysozyme [HEL]
- EC50 [6]: 300 nM
- EC50 [7]: 20 nM
- EC50 [8]: 300 nM
- EC50 [9]: 500 nM
- EC50 [10]: 300 nM
- Time after immunization of maximal antigen-presenting activity in LNC [11]: 8 days
- IL-2 production by 3A9 induced by LNC from primed mice [12]: induce
- IL-2 production by 1H11.3 induced by LNC from primed mice [13]: induce
